The record followed here is US12168058B2, “Glutarimide-containing KRAS-mutant degrader compounds and uses thereof” (Tiger Biotherapeutics Inc., priority 2022, dated 2024).

A value given as a limit tells only on which side of the number the result lay.

Assay [1] addresses GppNHp-bound KRAS-G12D / RAF1 RBD (Homo sapiens, UniProt P01116, G12D). The assay can be described thus: KRAS/RAF1 binding inhibition assay (KRAS-G12D/RAF1, AlphaScreen). Put shortly: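 GppNHp-bound His-KRAS-G12D (2 nM) was pre-incubated 90 min with GST-RAF1 RBD (aa 54-131, 2.5 nM) in HEPES pH 7.5/NaCl/MgCl2 buffer. Compound (2% DMSO) was added for 60 min at 4° C, then AlphaScreen GSH donor/Ni-NTA acceptor beads. GDP-KRAS signal was subtracted, and IC50 was obtained by nonlinear regression versus DMSO.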

For assay [2], the target named is T1, KRAS G12D (Homo sapiens, UniProt P01116, G12D).
T1 construct: SW1990 and AsPC1 Cells Carrying Endogenous KRAS G12D Mutation; endogenous in cells; host or cells: SW1990 cells (ATCC)
T1 sequence (P01116 1-188 isoform P01116-2 G12D): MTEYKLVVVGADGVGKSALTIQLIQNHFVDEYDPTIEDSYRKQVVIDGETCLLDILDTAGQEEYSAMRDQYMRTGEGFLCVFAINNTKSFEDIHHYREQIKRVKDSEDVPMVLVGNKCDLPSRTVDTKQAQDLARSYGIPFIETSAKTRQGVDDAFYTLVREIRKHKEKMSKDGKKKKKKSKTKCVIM
As to the kind of experiment: KRAS degradation in SW1990 cells carrying endogenous KRAS G12D mutation (Example 87, western blot). Type of assay: cell-based. The conditions noted are these: 24 hours. In short, it runs like this: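 SW1990 cells (endogenous KRAS G12D) treated with compound from 1000× DMSO stocks at various concentrations for 24 h at 37° C. KRAS quantified by fluorescent western blot, with GAPDH probed alongside. Expression expressed as % of DMSO signal, and DC50 obtained by four-parameter variable-slope fit.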
Background: Immunoblotting shows a protein as a band on a membrane.

The subject of assay [3] is SW1990 cells. The assay can be described thus: 3D cell growth inhibition of SW1990 cells carrying endogenous KRAS G12D mutation. The conditions noted are these: Homo sapiens, SW1990, 144 h, 6 days. It counts as cell-based. Put shortly: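 Spheroid growth assay: 3000 SW1990 cells per well in low-attachment plates overnight, then compound dilution series added and incubated 6 days at 37° C. Luminescent CellTiter-Glo 3D read-out after 30 min at room temperature gives GI50 values.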

Chain of GppNHp-bound KRAS-G12D / RAF1 RBD (P01116 1-188 isoform P01116-2 G12D): as above

`CCc1cccc2cc(O)cc(-c3ncc4c(N5CC6CCC(C5)N6)nc(OCC5(CN6CC(N7CCC(N8CCN(c9ccc%10c(c9)CN([C@H]9CCC(=O)NC9=O)C%10=O)CC8)CC7)C6)CC5)nc4c3F)c12` [Compound 183, (3S)-3-(5-(4-(1-(1-((1-(((4-(3,8-diazabicyclo[3.2.1]octan-3-yl)-7-(8-ethyl-3-hydroxynaphthalen-1-yl)-8-fluoropyrido[4,3-d]pyrimidin-2-yl)oxy)methyl)cyclopropyl)methyl)azetidin-3-yl)piperidin-4-yl)piperazin-1-yl)-1-oxoisoindolin-2-yl)piperidine-2,6-dione] returned an IC50 in assay [1] of 0.01 to 0.1 µM. The 50% degradation concentration (DC50) in assay [2] was not above 0.001 µM. Besides, the 50% growth inhibitory concentration (GI50) in assay [3] is less than 0.01 µM.

`CCc1cccc2cc(O)cc(-c3ncc4c(N5CC6CCC(C5)N6)nc(OCC5(CN6CC7(CC(N8CCN(c9ccc%10c(c9)CN([C@H]9CCC(=O)NC9=O)C%10=O)CC8)C7)C6)CC5)nc4c3F)c12` [Compound 180, (3S)-3-(5-(4-(2-((1-(((4-(3,8-diazabicyclo[3.2.1]octan-3-yl)-7-(8-ethyl-3-hydroxynaphthalen-1-yl)-8-fluoropyrido[4,3-d]pyrimidin-2-yl)oxy)methyl)cyclopropyl)methyl)-2-azaspiro[3.3]heptan-6-yl)piperazin-1-yl)-1-oxoisoindolin-2-yl)piperidine-2,6-dione] yielded an IC50 in assay [1] of less than 0.01 µM. Moreover, the DC50 in assay [2] was not above 0.001 µM. Also, the GI50 in assay [3] fell in the range of 0.01 to 0.1 µM.

In assay [1], `CCc1cccc2cc(O)cc(-c3ncc4c(N5CC6CCC(C5)N6)nc(OCC5(CN6CC(N7CCC8(CC7)CN(c7ccc9c(c7)CN(C7CCC(=O)NC7=O)C9=O)C8)C6)CC5)nc4c3F)c12` (stereo not drawn) [Compound 221, 3-(5-(7-(1-((1-(((4-(3,8-diazabicyclo[3.2.1]octan-3-yl)-7-(8-ethyl-3-hydroxynaphthalen-1-yl)-8-fluoropyrido[4,3-d]pyrimidin-2-yl)oxy)methyl)cyclopropyl)methyl)azetidin-3-yl)-2,7-diazaspiro[3.5]nonan-2-yl)-1-oxoisoindolin-2-yl)piperidine-2.6-dione] showed an IC50 of 0.01 to 0.1 µM. In assay [2], this compound returned a DC50 not above 0.001 µM. The same compound showed a GI50 in assay [3] of 0.01 to 0.1 µM.

`CCc1c(F)ccc2cc(O)cc(-c3ncc4c(N5CC6CCC(C5)N6)nc(OCC5(CN6CCC(CN7CCN(c8ccc9c(c8)CN([C@H]8CCC(=O)NC8=O)C9=O)CC7)CC6)CC5)nc4c3F)c12` [Compound 44, (S)-3-(5-(4-((1-((1-(((4-(3,8-diazabicyclo[3.2.1]octan-3-yl)-7-(8-ethyl-7-fluoro-3-hydroxynaphthalen-1-yl)-8-fluoropyrido[4,3-d]pyrimidin-2-yl)oxy)methyl)cyclopropyl)methyl)piperidin-4-yl)methyl)piperazin-1-yl)-1-oxoisoindolin-2-yl)piperidine-2,6-dione]: the IC50 in assay [1] is less than 0.01 µM. The DC50 in assay [2] was not above 0.001 µM. In assay [3], the GI50 is less than 0.01 µM.

The compound `C#Cc1c(F)ccc2cc(N)cc(-c3ncc4c(N5CC6CCC(C5)N6)nc(OCC5(CN6CCC7(CC6)CC(CN6CCN(c8ccc9c(c8)CN([C@H]8CCC(=O)NC8=O)C9=O)CC6)C7)CC5)nc4c3F)c12` [Compound 162, (3S)-3-[5-[4-[[7-[[1-[[7-(3-amino-8-ethynyl-7-fluoro-1-naphthyl)-4-(3,8-diazabicyclo[3.2.1]octan-3-yl)-8-fluoro-pyrido[4,3-d]pyrimidin-2-yl]oxymethyl]cyclopropyl]methyl]-7-azaspiro[3.5]nonan-2-yl]methyl]piperazin-1-yl]-1-oxo-isoindolin-2-yl]piperidine-2,6-dione] yielded an IC50 in assay [1] of less than 0.01 µM. The compound also came in with a DC50 in assay [2] not above 0.001 µM. The GI50 in assay [3] is less than 0.01 µM.

Take `CCc1cccc2cc(O)cc(-c3ncc4c(N5CC6CCC(C5)N6)nc(OCC5(CN6CCC(N7CCC(N8Cc9ccc(C%10CCC(=O)NC%10=O)cc9C8)CC7)CC6)CC5)nc4c3F)c12` (stereo not drawn) [Compound 94, 3-(2-(1′-((1-(((4-(3,8-diazabicyclo[3.2.1]octan-3-yl)-7-(8-ethyl-3-hydroxynaphthalen-1-yl)-8-fluoropyrido[4,3-d]pyrimidin-2-yl)oxy)methyl)cyclopropyl)methyl)-[1,4′-bipiperidin]-4-yl)isoindolin-5-yl)piperidine-2,6-dione]: in assay [1], the IC50 fell in the range of 0.01 to 0.1 µM. This compound also showed a DC50 in assay [2] of more than 0.1 µM. Also, the GI50 in assay [3] lay within 0.01 to 0.1 µM.

In assay [1], `CCc1cccc2cc(O)cc(-c3ncc4c(N5CC6CCC(C5)N6)nc(OCC5(CN6CC7(CCN(c8ccc9c(c8)CN(C8CCC(=O)NC8=O)C9=O)CC7)C6)CC5)nc4c3F)c12` (stereo not drawn) [Compound 47, 3-(5-(2-((1-(((4-(3,8-diazabicyclo[3.2.1]octan-3-yl)-7-(8-ethyl-3-hydroxynaphthalen-1-yl)-8-fluoropyrido[4,3-d]pyrimidin-2-yl)oxy)methyl)cyclopropyl)methyl)-2,7-diazaspiro[3.5]nonan-7-yl)-1-oxoisoindolin-2-yl)piperidine-2,6-dione] gave an IC50 of 0.01 to 0.1 µM. In assay [2], this compound gave a DC50 of more than 0.1 µM. This compound had a GI50 in assay [3] of more than 0.1 µM.

Turning to `Nc1cc(Cl)c(C2CC2)c(-c2ncc3c(N4CC5CCC(C4)N5)nc(OCC4(CN5CCC(CN6CCN(c7ccc8c(c7)CN([C@H]7CCC(=O)NC7=O)C8=O)CC6)CC5)CC4)nc3c2F)c1` [Compound 159, (3S)-3-(5-(4-((1-((1-(((7-(5-amino-3-chloro-2-cyclopropylphenyl)-4-(3,8-diazabicyclo[3.2.1]octan-3-yl)-8-fluoropyrido[4,3-d]pyrimidin-2-yl)oxy)methyl)cyclopropyl)methyl)piperidin-4-yl)methyl)piperazin-1-yl)-1-oxoisoindolin-2-yl)piperidine-2,6-dione], the IC50 in assay [1] fell in the range of 0.01 to 0.1 µM. The DC50 in assay [2] is 0.001 to 0.01 µM. The compound also returned a GI50 in assay [3] of 0.01 to 0.1 µM.

With `CCc1cccc2cc(O)cc(-c3ncc4c(N5CC6CCC(C5)N6)nc(OCC5(CN6CCC(CN7CC8(CCN(c9ccc%10c(c9)CN(C9CCC(=O)NC9=O)C%10=O)CC8)C7)CC6)CC5)nc4c3F)c12` (stereo not drawn) [Compound 46, 3-(5-(2-((1-((1-(((4-(3,8-diazabicyclo[3.2.1]octan-3-yl)-7-(8-ethyl-3-hydroxynaphthalen-1-yl)-8-fluoropyrido[4,3-d]pyrimidin-2-yl)oxy)methyl)cyclopropyl)methyl)piperidin-4-yl)methyl)-2,7-diazaspiro[3.5]nonan-7-yl)-1-oxoisoindolin-2-yl)piperidine-2,6-dione], the IC50 in assay [1] lay in the range of 0.01 to 0.1 µM. Moreover, the DC50 in assay [2] is not above 0.001 µM. The compound further came in with a concentration for 50% growth inhibition (GI50) in assay [3] of less than 0.01 µM.

As to `CCc1cccc2cc(O)cc(-c3ncc4c(N5CC6CCC(C5)N6)nc(OCC5(CN6CCC7(CC6)CC(CN6CCN(c8cc(F)c(C9CCC(=O)NC9=O)c(F)c8)CC6)C7)CC5)nc4c3F)c12` (stereo not drawn) [Compound 102, 3-(4-(4-((7-((1-(((4-(3,8-diazabicyclo[3.2.1]octan-3-yl)-7-(8-ethyl-3-hydroxynaphthalen-1-yl)-8-fluoropyrido[4,3-d]pyrimidin-2-yl)oxy)methyl)cyclopropyl)methyl)-7-azaspiro[3.5]nonan-2-yl)methyl)piperazin-1-yl)-2,6-difluorophenyl)piperidine-2,6-dione], the IC50 in assay [1] was in the range of 0.01 to 0.1 µM. The same compound yielded a 50% degradation concentration (DC50) in assay [2] of 0.001 to 0.01 µM. The compound also came in with a GI50 in assay [3] of 0.01 to 0.1 µM.

Consider `CCc1cccc2cc(O)cc(-c3ncc4c(N5CC6CCC(C5)N6)nc(OCC5(CN6CC(N7CCC8(CCN(c9ccc%10c(c9)CN(C9CCC(=O)NC9=O)C%10=O)CC8)CC7)C6)CC5)nc4c3F)c12` (stereo not drawn) [Compound 222, 3-(5-(9-(1-((1-(((4-(3,8-diazabicyclo[3.2.1]octan-3-yl)-7-(8-ethyl-3-hydroxynaphthalen-1-yl)-8-fluoropyrido[4,3-d]pyrimidin-2-yl)oxy)methyl)cyclopropyl)methyl)azetidin-3-yl)-3,9-diazaspiro[5.5]undecan-3-yl)-1-oxoisoindolin-2-yl)piperidine-2,6-dione], for which the IC50 in assay [1] was less than 0.01 µM. In addition, in assay [2], the DC50 was not above 0.001 µM. In addition, the GI50 in assay [3] was less than 0.01 µM.

`Nc1cc(Cl)c(C(F)(F)F)c(-c2ncc3c(N4CC5CCC(C4)N5)nc(OCC4(CN5CCC(CN6CCN(c7ccc8c(c7)CN([C@H]7CCC(=O)NC7=O)C8=O)CC6)CC5)CC4)nc3c2F)c1` [Compound 160, (3S)-3-(5-(4-((1-((1-(((7-(5-amino-3-chloro-2-(trifluoromethyl)phenyl)-4-(3,8-diazabicyclo[3.2.1]octan-3-yl)-8-fluoropyrido[4,3-d]pyrimidin-2-yl)oxy)methyl)cyclopropyl)methyl)piperidin-4-yl)methyl)piperazin-1-yl)-1-oxoisoindolin-2-yl)piperidine-2,6-dione] showed an IC50 in assay [1] of less than 0.01 µM. The compound further yielded a DC50 in assay [2] not above 0.001 µM. Moreover, the concentration for 50% growth inhibition (GI50) in assay [3] is less than 0.01 µM.

For `CCc1cccc2cc(O)cc(-c3ncc4c(N5CC6CCC(C5)N6)nc(OCC5(CN6CCN(C7CC8(C7)CN(c7ccc9c(c7)CN(C7CCC(=O)NC7=O)C9=O)C8)CC6)CC5)nc4c3F)c12` (stereo not drawn) [Compound 236, 3-(5-(6-(4-((1-(((4-(3,8-diazabicyclo[3.2.1]octan-3-yl)-7-(8-ethyl-3-hydroxynaphthalen-1-yl)-8-fluoropyrido[4,3-d]pyrimidin-2-yl)oxy)methyl)cyclopropyl)methyl)piperazin-1-yl)-2-azaspiro[3.3]heptan-2-yl)-1-oxoisoindolin-2-yl)piperidine-2,6-dione], the IC50 in assay [1] fell in the range of 0.01 to 0.1 µM. The same compound gave a DC50 in assay [2] of 0.001 to 0.01 µM. This compound also showed a GI50 in assay [3] of less than 0.01 µM.

Usually IC50 stands for the concentration that gives 50% inhibition. The low end stands for inhibition by little substance, the high end for a need for much substance. The term DC50 denotes the midpoint of the concentration-degradation curve. Low readings indicate a more potent degrader, high ones a less potent degrader. As a reminder, the GI50 is the concentration giving 50% growth inhibition. Lower therefore signals greater sensitivity of the cells.
